In patent US12582645B2, “Chemokine CXCR4 receptor modulators and uses related thereto” (Emory University, priority 2017, dated 2026) one finds IC50 data, which are given here for 42 compounds.

The target of the assay is T1, CXCR4 (Homo sapiens, UniProt P61073).
T1 construct: Human T lymphoblast cells (CCRF-CEM) expressing endogenous CXCR4 receptors; endogenous in cells; host or cells: CCRF-CEM (human T lymphoblast cells)
In words: CXCR4-CEM calcium flux assay, antagonist mode (inhibition of SDF-1α-induced calcium flux). The class given is cell-based. To be noted: CCRF-CEM cells expressing endogenous CXCR4, stimulated with 4 nM SDF-1α, read-out: CXCR4 Ca^2+ Flux IC50. The protocol: CXCR4-CEM Calcium Flux Assays
Exemplary compounds of the invention were tested for their ability to induce or inhibit calcium flux in CCRF-CEM cells, a human cell line that endogenously expresses CXCR4. Activation of CXCR4 stimulates G protein signaling which, in CCRF-CEM cells, causes a series of downstream events that leads to the release of intracellular calcium stores, or calcium flux. Calcium ion concentrations can be easily measured using a wide variety of […] calcium indicators and, as a result, calcium flux assays are commonly employed methods for measuring G protein-coupled receptor (GPCR) activity. Because the therapeutic potential of CXCR4 antagonists as anti-cancer agents likely relies on their ability to inhibit CXCR4-mediated G protein signaling, this assay was utilized as a first-pass measure of inhibitor potency.
The cells were then equilibrated to room temperature for 30 minutes before assay. […] For “antagonist mode” assessment, the cells are subsequently incubated for 25 minutes at room temperature. SDF-1α (R&D System Cat #350-NS/CF) was then added at a final concentration of 4 nM to stimulate the cells. Inhibition of SDF-1α-induced calcium flux was monitored by FDSS6000 for 90 seconds.
After correcting for background, EC50 values were determined. […] Inhibition data for the test compound over a range of concentrations was plotted as percentage inhibition of the test compound as compared to an internal control compound.

T1 sequence (P61073 whole entry): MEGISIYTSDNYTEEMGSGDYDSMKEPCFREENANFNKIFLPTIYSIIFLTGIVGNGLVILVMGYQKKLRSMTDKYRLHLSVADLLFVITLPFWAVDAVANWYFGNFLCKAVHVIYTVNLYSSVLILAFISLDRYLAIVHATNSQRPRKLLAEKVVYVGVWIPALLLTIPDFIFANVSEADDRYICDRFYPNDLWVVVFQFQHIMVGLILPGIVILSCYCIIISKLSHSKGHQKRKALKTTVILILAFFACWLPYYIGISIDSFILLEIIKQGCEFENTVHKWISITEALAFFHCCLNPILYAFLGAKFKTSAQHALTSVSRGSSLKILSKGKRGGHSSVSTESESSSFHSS

For `CN(CC1Cc2c(cccc2N2CCNCC2)CN1)[C@H]1CCCc2cccnc21` (single isomer, unassigned) [EMU034 (Stereoisomer 2)], the IC50 was 314 nM.

In the case of `c1cnc2c(c1)CCC[C@@H]2N(CC1CCCCC1)CC1Cc2c(cccc2N2CCNCC2)CN1` (single isomer, unassigned) [EMU100 (Stereoisomer 2)], the IC50 stood at 1290 nM.

`C(=C\CN(C[C@H]1Cc2ccccc2CN1)[C@H]1CCCc2cccnc21)/CNCc1ccccn1` [EMU223, (E)-N1-(pyridin-2-ylmethyl)-N4-(((R)-1,2,3,4-tetrahydroisoquinolin-3-yl)methyl)-N4-((S)-5,6,7,8-tetrahydroquinolin-8-yl)but-2-ene-1,4-diamine]: the IC50 was determined as 58.3 nM.

With `C/C(=C/CN)CN(C[C@H]1Cc2ccccc2CN1)[C@H]1CCCc2cccnc21` [EMU208], the IC50 stood at 28.2 nM.

On to `CN1CCN(c2ccccc2CN2CCNC(CN(C)[C@H]3CCCc4cccnc43)C2)CC1` (stereo partly drawn) [EMU070, (8S)—N-methyl-N-((4-(2 (4-methylpiperazin-1-yl)benzyl)piperazin-2-yl)methyl)-5,6,7,8-tetrahydroquinolin-8-amine], for which the IC50 was 6270 nM.

As for `c1cnc2c(c1)CCC[C@@H]2N(CCCN1CCNCC1)Cc1nc2ccccc2s1` [EMU186, (S)—N-((1H-benzo[d]thiazol-2yl)methyl)-N-(3-(piperazine-1yl)propyl)-5,6,7,8-tetrahydroquinolin-8-amine], the IC50 is 1200 nM.

In the case of `FC1(F)CCC(NC/C=C/CN(C[C@H]2Cc3ccccc3CN2)[C@H]2CCCc3cccnc32)CC1` [EMU154, (E)-N1-(4,4-difluorocyclohexyl)-N4-(((R)-1,2,3,4-tetrahydroisoquinolin-3-yl)methyl)-N4-((S)-5,6,7,8-tetrahydroquinolin-8-yl)but-2-ene-1,4-diamine], the IC50 amounted to 82.1 nM.

On to `CC1(C)CCC(NC/C=C/CN(C[C@H]2Cc3ccccc3CN2)[C@H]2CCCc3cccnc32)CC1` [EMU153, (E)-N1-(4,4-dimethylcyclohexyl)-N4-(((R)-1,2,3,4-tetrahydroisoquinolin-3-yl)methyl)-N4-((S)-5,6,7,8-tetrahydroquinolin-8-yl)but-2-ene-1,4-diamine], for which the IC50 turned out to be 64.6 nM.

`C/C(CN(C[C@H]1Cc2ccccc2CN1)[C@H]1CCCc2cccnc21)=C(/F)CN` [EMU126]: the IC50 turned out to be 1880 nM.

Regarding `FC1(F)CCC(NCc2ccc(CN(C[C@H]3Cc4ccccc4CN3)[C@H]3CCCc4cccnc43)cc2)CC1` [EMU182, (S)—N-(4-(((4,4-difluorocyclohexyl)amino)methyl)benzyl)-N—(((R)-1,2,3,4-tetrahydroisoquinolin-3-yl)methyl)-5,6,7,8-tetrahydroquinolin-8-amine], the IC50 came out at 143 nM.

In the case of `NCC1=C(CN(C[C@H]2Cc3ccccc3CN2)[C@H]2CCCc3cccnc32)CCCC1` [EMU124], the IC50 is 227 nM.

Regarding `CN(C[C@H]1Cc2c(cccc2N2CCN(c3cccc(C(F)(F)F)c3)CC2)CN1)[C@H]1CCCc2cccnc21` [EMU226], the IC50 was greater than 16700 nM.

As for `C/C(CN)=C(\F)CN(CC1Cc2ccccc2CN1)[C@H]1CCCc2cccnc21` (stereo partly drawn) [EMU140], the IC50 is 28.3 nM.

Take `CN(C[C@H]1Cc2c(cccc2N[C@H]2CC[C@H](N)CC2)CN1)[C@H]1CCCc2cccnc21` [EMU089]: the IC50 amounted to 755 nM.

On to `NCc1ccc(CN(CC2Cc3ncccc3CN2)[C@H]2CCCc3cccnc32)cc1` (single isomer, unassigned) [EMU193], for which the 50% inhibitory concentration (IC50) came out at 17000 nM.

Regarding `FC1(F)CCC(NC/C=C\CN(C[C@H]2Cc3ccccc3CN2)[C@H]2CCCc3cccnc32)CC1` [EMU143], the IC50 came out at 98 nM.

For `Cc1ccc(CN(CCCN2CCNCC2)C[C@H]2Cc3ccccc3CN2)nc1` [EMU148, (R)—N-((5-methylpyridin-2-yl)methyl)-3-(piperazin-1-yl)-N-((1,2,3,4-tetrahydroisoquinolin-3-yl)methyl)propan-1-amine], the IC50 turned out to be 3100 nM.

For the compound `Cc1ccc(CN(CCCCN)C[C@H]2Cc3c(cccc3N3CCNCC3)CN2)nc1` [EMU165, (R)—N1-((5-methylpyridin-2-yl)methyl)-N1-((5-(piperazin-1-yl)-1,2,3,4-tetrahydroisoquinolin-3-yl)methyl)butane-1,4-diamine], the IC50 turned out to be 115 nM.

Consider `CN1CCN(c2cccc3c2C[C@H](CN(C)[C@H]2CCCc4cccnc42)NC3)CC1` [EMU116], for which the IC50 is 29.6 nM.

As to `c1cnc2c(c1)CCC[C@@H]2N(CC1CCCCC1)CC1Cc2c(cccc2N2CCNCC2)CN1` (single isomer, unassigned) [EMU100 (Stereoisomer 1)], the IC50 is 715 nM.

Consider `C[C@@H]1CN(c2cccc3c2C[C@H](CN(C)[C@H]2CCCc4cccnc42)NC3)C[C@H](C)N1C` [EMU198], for which the IC50 was 14.1 nM.

As for `CN(C[C@H]1Cc2c(cccc2N2C[C@@H]3CCN(C)[C@@H]3C2)CN1)C1CCCc2cccnc21` (stereo partly drawn) [EMU236], the IC50 amounted to 11.4 nM.

As to `c1ccc(CNCc2ccc(CN(C[C@H]3Cc4ccccc4CN3)[C@H]3CCCc4cccnc43)cc2)nc1` [EMU220, (S)—N-(4-(((pyridin-2-ylmethyl)amino)methyl)benzyl)-N—(((R)-1,2,3,4-tetrahydroisoquinolin-3-yl)methyl)-5,6,7,8-tetrahydroquinolin-8-amine], the IC50 stood at 286 nM.

With `c1cnc2c(c1)CCC[C@@H]2N(CC1CC1)C[C@H]1Cc2c(cccc2N2CCNCC2)CN1` [EMU119], the IC50 is 26.6 nM.

For the compound `CN(C)[C@@H]1CCN(c2cccc3c2C[C@H](CN(C)[C@H]2CCCc4cccnc42)NC3)C1` [EMU237], the IC50 stood at 10.4 nM.

On to `Cc1nc(CN(CCCCN)C[C@H]2Cc3ccccc3CN2)cs1` [EMU110, (R)—N1-((2-methylthiazol-4-yl)methyl)-N1-((1,2,3,4-tetrahydroisoquinolin-3-yl)methyl)butane-1,4-diamine], for which the IC50 was greater than 33300 nM.

Turning to `CC(C)(CCN)CN(C[C@H]1Cc2ccccc2CN1)[C@H]1CCCc2cccnc21` [EMU075], the IC50 was greater than 33300 nM.

`CN(C[C@H]1Cc2c(cccc2N2CC3CNCC3C2)CN1)C1CCCc2cccnc21` (stereo partly drawn) [EMU062]: the IC50 came out at 10.3 nM.

Turning to `C(=C\CN(C[C@H]1Cc2ccccc2CN1)[C@H]1CCCc2cccnc21)/CNCC1CCOCC1` [EMU180, (E)-N1-((tetrahydro-2H-pyran-4-yl)methyl)-N4-(((R)-1,2,3,4-tetrahydroisoquinolin-3-yl)methyl)-N4-((S)-5,6,7,8-tetrahydroquinolin-8-yl)but-2-ene-1,4-diamine], the IC50 amounted to 24.2 nM.

Consider `C[C@@H]1CN(c2cccc3c2CC(CN(C)[C@H]2CCCc4cccnc42)NC3)C[C@H](C)N1` (single isomer, unassigned) [EMU096 (Stereoisomer 1)], for which the IC50 was 61 nM.

As for `CN1C[C@@H]2CN(c3cccc4c3C[C@H](CN(C)C3CCCc5cccnc53)NC4)C[C@@H]2C1` (stereo partly drawn) [EMU227], the IC50 was 9.56 nM.

Consider `NCCCCN(Cc1cscn1)C[C@H]1Cc2ccccc2CN1` [EMU104, (R)—N1-((1,2,3,4-tetrahydroisoquinolin-3-yl)methyl)-N1-(thiazol-4-ylmethyl)butane-1,4-diamine], for which the IC50 is roughly 16600 nM.

As to `CN(C[C@H]1Cc2c(cccc2N2CCN(C3CC3)CC2)CN1)[C@H]1CCCc2cccnc21` [EMU196], the IC50 is 23.5 nM.

`Cc1cnc2c(c1)CCC[C@@H]2N(C)C[C@H]1Cc2c(cccc2N2CCNCC2)CN1` [EMU230, (S)—N,3-dimethyl-N—(((R)-5-(piperazin-1-yl)-1,2,3,4-tetrahydroisoquinolin-3-yl)methyl)-5,6,7,8-tetrahydroquinolin-8-amine]: the IC50 came out at 16.1 nM.

For the compound `c1cnc(CN(CCCN2CCNCC2)[C@H]2CCCc3cccnc32)nc1` [EMU187, (S)—N-(3-(piperazin-1yl)propyl)-N-(pyrimidin-2ylmethyl)-5,6,7,8-tetrahydroquinolin-8-amine], the IC50 worked out at 4320 nM.

On to `C(=C\CN(C[C@H]1Cc2ccccc2CN1)[C@H]1CCCc2cccnc21)/CNC1CCOCC1` [EMU155, (E)-N1-(tetrahydro-2H-pyran-4-yl)-N4-(((R)-1,2,3,4-tetrahydroisoquinolin-3-yl)methyl)-N4-((S)-5,6,7,8-tetrahydroquinolin-8-yl)but-2-ene-1,4-diamine], for which the IC50 turned out to be 15.5 nM.

For `CN1CCN(Nc2cccc3c2C[C@H](CN(C)[C@H]2CCCc4cccnc42)NC3)CC1` [EMU229], the IC50 came to 47.4 nM.

Consider `C/C(CN)=C(/F)CN(C[C@H]1Cc2ccccc2CN1)[C@H]1CCCc2cccnc21` [EMU141], for which the IC50 worked out at 43.7 nM.

Take `CN1CCN(c2cccc3c2C[C@H](CN2CCC[C@H]4CCc5cccnc5[C@H]42)NC3)CC1` [EMU232, (4aR,10bS)-1-(((R)-5-(4-methylpiperazin-1-yl)-1,2,3,4-tetrahydroisoquinolin-3-yl)methyl)-1,2,3,4,4a,5,6,10b-octahydro-1,10-phenanthroline]: the half-inhibitory concentration (IC50) was found to be 25.2 nM.

`C/C(CN(C[C@H]1Cc2ccccc2CN1)[C@H]1CCCc2cccnc21)=C(\F)CN` [EMU125]: the IC50 was 79.9 nM.

With `c1cnc2c(c1)CCC[C@@H]2N(CCCN1CCNCC1)Cc1nc2ccccc2[nH]1` [EMU185, (S)—N-((1H-benzo[d]imidazole-2yl)methyl)-N-(3-(piperazine-1yl)propyl)-5,6,7,8-tetrahydroquinolin-8-amine], the IC50 is 45.3 nM.

Take `CN(C[C@H]1Cc2c(cccc2N2CCN3CCC[C@H]3C2)CN1)[C@H]1CCCc2cccnc21` [EMU160]: the IC50 amounted to 2.92 nM.
